Experiment [1] addresses T1, human GPR119 receptor (Homo sapiens, UniProt Q8TDV5).
T1 sequence (Q8TDV5 1-335): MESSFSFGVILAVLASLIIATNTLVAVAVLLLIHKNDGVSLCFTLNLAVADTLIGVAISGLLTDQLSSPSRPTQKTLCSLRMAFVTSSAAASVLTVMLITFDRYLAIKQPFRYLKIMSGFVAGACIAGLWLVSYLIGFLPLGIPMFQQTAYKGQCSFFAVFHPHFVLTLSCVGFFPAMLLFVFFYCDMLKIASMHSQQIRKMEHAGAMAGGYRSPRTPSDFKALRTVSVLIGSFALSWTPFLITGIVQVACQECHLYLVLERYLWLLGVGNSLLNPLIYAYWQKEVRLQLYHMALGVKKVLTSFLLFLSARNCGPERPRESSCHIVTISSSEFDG
The experiment in a line: Ligand-induced GPR119 activation, cAMP formation (HTRF) in CHO-K1 cells. In kind it is cell-based. Further details: expressed in transfected cells. As to conditions: for cAMP formation / GPR119 activation in words: CHO-K1 cells transiently expressing GPR119, FIG. 1; for EC50: CHO-K1 cells, cAMP formation. How it is done: FIG. 1. Ligand-induced GPR119 activation in CHO-K1 cells. Five different ligands were tested. Oleoylethanolamide, H-1: 2-oleoylglycerol, H-2: 1-oleoyleglycerol, H-4: oleic acid, and H-5: 2-palmitoylglycerol. cAMP was measured by a HTRF kit from CisBio International. Three experiments (each in duplicate) were performed using oleoylethanolamide as positive control in each experiment. All dose-response curves were normalized to the efficacy of OEA in each experiment, and the data are shown as ligand-induced activation above basal receptor activity.
GPR119 receptor signalling experiments were carried out using CHO-K1 cells transiently transfected with the human GPR119 receptor. CHO-K1 cells expressing GPR119 grown to mid-log phase prior to the test in culture media without antibiotics and supplemented with doxycycine (final concentration 200 ng/ml) were detached be gentle flushing with PBS-EDTA (5 mM EDTA), recovered by centrifugation and resuspended in Ham's F12 culture medium containing 10% FCS and no antibiotic. Cells were counted, centrifuged in a 50 ml Falcon tube and resuspended in KRH-IBMX (5 mM KCL, 1.25 mM MgSO4, 124 mM NaCl, 25 mM HEPES, 13.3 mM glucose, 1.25 mM KH2PO4, 1.45 mM CaCl2, 0.6 mg/ml BSA and […] Phenol red, pH 7.4) at a concentration of 6.25×10^5 cells/ml. Cells were then filled in 96 well plates (total vol 24 μl/well) and stimulated with agonists in serial dilution for 30 min. cAMP was then measured using a HTRF kit from CisBio International (cat no. 62AM2PEB). Determinations were made in duplicate.
In general terms: cAMP levels reflect the balance of adenylyl cyclase and phosphodiesterase activity.

Experiment [2] deals with T1, human GPR119 receptor. The experiment in a line: Ligand-induced GPR119 activation, cAMP accumulation (3H-adenine) in transiently transfected COS-7 cells. In kind it is cell-based. Further details: expressed in transfected cells; host or cells: COS-7. Here is the method:
Three different ligands were tested: (C) oleoylethanolamide (OEA), (A) 2-oleoylglycerol (2OG), and (D) oleic acid, by measurement of cAMP accumulation. Briefly, COS-7 cells were transiently transfected with the human GPR119 receptor (squares) or empty vector (negative control, triangle). The cells were seeded in plates one day after transfection, incubated for 24 hours with 2 μCi/ml of ^3H-adenine. At the day of the cAMP measurement, the cells incubated with the ligands for 25 minutes, lysed, and the cAMP purified using Dowex and alumina columns. The data represent sum-curves of three independent experiments (n=3), performed in duplicates. All dose-response curves were normalized to the efficacy of OEA in each experiment, and the data are shown as ligand-induced activation above basal receptor activity.
Briefly, COS-7 cells were transiently transfected with human GPR119 receptor (squares) or empty vector (negative control, triangle). The cells were seeded in plates one day after transfection, incubated for 24 hours with 2 μCi/ml of ^3H-adenine. At the day of the cAMP measurement, the cells were incubated with the ligand for 25 minutes, lysed, and the cAMP purified using Dowex and alumina columns. The data represent sum-curves of the 7 independent experiments, performed in duplicates.
GPR119 receptor signalling experiments were carried out using COS-7 cells transiently transfected with the human GPR119 receptor. The COS-7 cells were grown at 10% CO2 and 37° C. in Dulbecco's modified Eagle's medium with glutamax (Gibco, Cat. No 21885-025) adjusted with 10% fetal bovine serum (FBS), 180 u/ml penicillin and 45 ug/mL streptomycin (PenStrep). Transfection of the COS-7 cells was performed by the calcium phosphate precipitation method. The cells were seeded in 24 well plates (1.5×10^5 cells/well) one day after transfection, and were subsequently incubated for 24 hours with 2 μCi/ml of 3H-adenine in 0.5 ml growth medium per well. At the day of the cAMP measurement, the cells were washed twice in HBS buffer (25 mM Hepes, pH 7.2, supplemented with 0.75 mM NaH2PO4, 140 mM NaCl and 0.05% (w/v) bovine serum albumin), and 0.5 ml HBS buffer supplemented with 1 mM of the phosphodiesterase inhibitor IBMX (3-isobutyl-1-methylxanthine, Sigma chemicals Co., St. Louis, Mo., USA) was added together with increasing concentrations of the different compounds (2OG, 1OG, OEA, oleic acid or 2-PG). After 25 min incubation at 37° C., the cells were placed on ice, the medium was removed, and the cells were lysed in 1 ml of 5% (w/v) trichloroacetic acid, supplemented with 0.1 mM cAMP and 0.1 mM ATP for 30 min. The lysate mixtures were loaded onto Dowex columns (Bio-Rad, Hercules, Calif., USA), which were washed with 2 ml of water and placed onto the top of alumina columns (Sigma) and washed again with 10 ml of water. The alumina columns were eluted with 6 ml of 0.1 M imidazole into 15 ml scintillation fluid (Highsafe III). Columns were re-used up to 15 times. Dowex columns were regenerated by adding 10 ml of 2 N HCl followed by 10 ml of water; the alumina columns were regenerated by adding 2 ml of 1 M imidazole, 10 ml of 0.1 M imidazole, and finally 5 ml of water. Determinations were made in duplicate.

Experiment [3] relates to tGLP-1 release. In words: Clinical experiment: duodenal bolus in healthy male volunteers, plasma tGLP-1 release. The following applies: for plasma tGLP-1 levels during the first 25 minutes: duodenal bolus, compared to vehicle. In kind it is in vivo, human. Here is the method:
FIG. 4. Stimulation of tGLP-1 release by 2OG in the intestinal lumen. Eight healthy male volunteers were given enteral feeding by duodenal tube. Each volunteer was given three different liquid meals (two grams of 2OG(▴), 1.54 grams of oleic (∘) acid or vehicle (⋄)) on three different days. The vehicle consisted of 50 ml glycerol plus 5 ml ethanol. Data are mean values±SEM and were analysed by repeated measurements ANOVA.
8 healthy male volunteers (20-30 years, BMI 20-25) that had fasted 10 hours, were given enteral feeding by duodenal tube. The liquid meals were prepared 5 min before use. Each volunteer was given three different liquid meals (clear solution, bolus 55 ml) on three different days (A-C).
Day A: 2OG (2 g) in 50 ml glycerol+5 ml ethanol Day B: oleic acid (1.54 g) in 50 ml glycerol+5 ml ethanol Day C: 50 ml glycerol+5 ml ethanol Blood Samples were collected at the following points (min): −15, −10, 0, 10, 20, 30, 40, 50, 60, 75, 90, 120, 150, 180, 240.
In serum was measured: insulin and C-peptide
In plasma was measured: glucose, tGLP-1, Cholecystokinin (CCK).
The methods for these assays have been described previously (ref 18).

[4] abbreviates: experiment 1, read-out: EC-values for activation of GPR119, CHO-exp-1.
[5] abbreviates: experiment 2, read-out: EC-values for activation of GPR119, CHO-exp-2.
Setting [6] is: COS-7 cells, cAMP formation, n = 3, read-out: EC-values for activation of GPR119, COS-cells (n = 3).
The mark [7] stands for this setting: transiently transfected COS-7 cells, Table 2, read-out: EC50 for activation of GPR119.
The mark [8] stands for this setting: experiment 3, read-out: EC-values for activation of GPR119, CHO-exp-3.

Turning to `CCCCCCCC/C=C\CCCCCCCC(=O)OC(CO)CO` [2-Oleoylglycerol, 2-oleoylglycerol], the “cAMP formation / GPR119 activation in words” value in experiment [1] is on record as “increase cAMP formation”. The EC50 in experiment [1] (setting [4]) is 1.55 µM; in experiment [1] (setting [5]) it was 1.12 µM; in experiment [2] (setting [6]), 2.8 µM; in experiment [2] (setting [7]), 4.2 µM. The “GPR119 agonism (efficacy normalized to OEA)” value in experiment [2] (cAMP formation, COS-7 cells (also CHO-K1)) is “full agonist”. The plasma cholecystokinin levels entry in experiment [3] (comparison between groups, data not shown) is given as “no difference”. For the same molecule, in experiment [3] (fasted volunteers), the “plasma tGLP-1 levels during the first 25 minutes” value was “significant increased levels of tGLP-1”. Also, the “incremental area under the curve (iAUC) of tGLP-1 for the first 25 min” value in experiment [3] (healthy male volunteers, duodenal tube, 2 g 2OG or 1.54 g oleic acid in 50 ml glycerol + 5 ml ethanol, mean±SEM) is given as 0.07±0.02 nM×25 min. Besides, the “plasma levels of glucose” value in experiment [3] (increase after 25 min in all three groups, comparison between groups, data not shown) is recorded as “no difference between groups”. Besides, the “insulin or c-peptide levels” value in experiment [3] (serum, fasted volunteers, data not shown) is “no effect”.
Consider `CCCCCCCCCCCCCCCC(=O)OC(CO)CO` [2-palmitolyglycerol (2PG), 2-palmitoylglycerol], for which, in experiment [1], the “cAMP formation / GPR119 activation in words” value is reported as “activator of GPR119”. The EC50 in experiment [2] (setting [7]) was > 30 µM.
With `CCCCCCCC/C=C\CCCCCCCCOC(CO)CO` [2OG-ether], in experiment [2] (setting [7]), the EC50 was determined as 7.9 µM.
For `CCCCCCCC/C=C\CCCCCCCC(=O)NCCO` [Oleoylethanolamide, oleoylethanolamide, reference compound], the EC50 in experiment [1] (setting [4]) was 1.43 µM; in experiment [1] (setting [5]), 4.65 µM; in experiment [1] (setting [8]), 1.67 µM; in experiment [2] (setting [6]) it was 1.4 µM.
In the case of `CCCCCCCC/C=C\CCCCCCCC(=O)O` [oleic acid, reference compound], the EC50 in experiment [1] (setting [8]) is > 30 µM; in experiment [2] (setting [6]), 32.6 µM; in experiment [2] (setting [7]), > 30 µM. For the same molecule, in experiment [3] (fasted volunteers), the “plasma tGLP-1 levels during the first 25 minutes” value is on record as “did not increase plasma levels of GLP-1”.
